Test results reported in paper PMC6521598, “Identification of GLPG/ABBV-2737, a Novel Class of Corrector, Which Exerts Functional Synergy With Other CFTR Modulators” (Frontiers in Pharmacology, 2019).

Target: wild type CFTR (Homo sapiens, UniProt P13569)
Assay: YFP halide assay, HEK293 cells transfected with wild type CFTR
Assay type: cell-based
Parameters: expressed in transfected cells; host or cells: HEK293
Description: HEK293 cells were transfected with 10–80 ng of plasmid encoding F508del, E92K, P67L, V232D, F508del/G550E, F508del/I539T or wild type CFTR and 20 ng of plasmid encoding YFP (H148Q/I152L/F47L) using jetPEI (Polyplus transfection). Directly after transfection, cells were seeded in black 96-well plates coated with poly-D-lysine at a density of 70,000 cells per well. The next day, cells were treated with corrector(s) for 24 h. After this incubation period, cells were washed twice with DPBS with Ca^2+ and Mg^2+. […] YFP fluorescence was measured using an EnVision plate reader (PerkinElmer). […] The capacity of potentiators to increase CFTR channel function was expressed as 1-(fluorescence 7 s after NaI addition (F)/fluorescence before NaI addition (F0)). […]
Due to the lack of any forskolin activated current upon correction of F508del carrying cells with GLPG2737, we wondered whether GLPG2737 would have an effect on wild type CFTR activity. […] Similar to the observations in the 24 h incubation experiment, a decrease in wild type channel activity was measured with increasing amounts of GLPG2737 (Figure 6B). Since the YFP halide assay was performed using an overexpressing cell system that might not be physiologically relevant, GLPG2737 was also evaluated on normal HBE cells.

Chain of wild type CFTR (P13569 whole entry): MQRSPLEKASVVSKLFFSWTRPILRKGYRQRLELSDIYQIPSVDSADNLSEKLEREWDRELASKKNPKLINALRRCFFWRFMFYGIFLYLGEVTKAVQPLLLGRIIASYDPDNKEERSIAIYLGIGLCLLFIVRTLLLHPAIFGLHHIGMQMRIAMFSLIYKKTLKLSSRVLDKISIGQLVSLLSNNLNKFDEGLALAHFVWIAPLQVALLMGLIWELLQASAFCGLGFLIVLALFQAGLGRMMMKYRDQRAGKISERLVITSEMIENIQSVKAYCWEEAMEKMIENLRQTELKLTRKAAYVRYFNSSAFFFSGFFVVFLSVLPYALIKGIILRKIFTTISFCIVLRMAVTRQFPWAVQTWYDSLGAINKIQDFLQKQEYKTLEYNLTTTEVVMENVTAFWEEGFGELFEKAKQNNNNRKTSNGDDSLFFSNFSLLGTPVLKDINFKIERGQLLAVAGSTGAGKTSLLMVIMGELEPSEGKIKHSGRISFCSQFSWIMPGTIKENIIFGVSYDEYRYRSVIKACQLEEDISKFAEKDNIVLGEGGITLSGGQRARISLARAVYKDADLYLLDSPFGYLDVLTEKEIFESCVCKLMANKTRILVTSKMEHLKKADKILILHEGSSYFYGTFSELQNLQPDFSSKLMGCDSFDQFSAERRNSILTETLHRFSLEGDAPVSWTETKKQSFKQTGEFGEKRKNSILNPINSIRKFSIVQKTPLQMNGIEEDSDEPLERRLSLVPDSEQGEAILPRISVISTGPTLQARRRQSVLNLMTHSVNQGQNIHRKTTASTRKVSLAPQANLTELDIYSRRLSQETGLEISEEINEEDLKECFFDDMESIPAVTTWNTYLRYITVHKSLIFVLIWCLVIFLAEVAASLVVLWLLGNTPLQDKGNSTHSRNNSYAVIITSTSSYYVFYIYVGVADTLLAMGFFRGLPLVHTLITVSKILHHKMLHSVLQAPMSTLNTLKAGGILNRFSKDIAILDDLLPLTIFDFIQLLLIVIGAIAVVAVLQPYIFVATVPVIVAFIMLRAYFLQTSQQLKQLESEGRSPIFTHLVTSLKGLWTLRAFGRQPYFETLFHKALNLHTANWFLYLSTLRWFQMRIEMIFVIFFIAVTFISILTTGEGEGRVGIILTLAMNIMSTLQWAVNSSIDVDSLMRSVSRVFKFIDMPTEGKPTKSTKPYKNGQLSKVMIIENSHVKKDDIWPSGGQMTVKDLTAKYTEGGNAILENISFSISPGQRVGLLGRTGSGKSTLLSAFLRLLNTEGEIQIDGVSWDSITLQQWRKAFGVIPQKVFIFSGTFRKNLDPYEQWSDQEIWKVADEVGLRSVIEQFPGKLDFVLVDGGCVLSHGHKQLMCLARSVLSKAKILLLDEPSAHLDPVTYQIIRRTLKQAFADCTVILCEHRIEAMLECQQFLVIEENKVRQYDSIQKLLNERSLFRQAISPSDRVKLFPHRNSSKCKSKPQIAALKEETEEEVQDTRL

wild type CFTR activity (24 h incubation with a dose range, 100 nM FSK): dose dependent decrease
wild type channel activity (acute addition together with forskolin (100 nM)): decrease
Structure (SMILES): COC1CCN(C2CCN(c3cc(C(=O)NS(=O)(=O)N(C)C)nc4c3c(C3CCC3)nn4-c3ccc(F)cc3)CC2)CC1 [GLPG2737]
